Measured values: patent publication US9504674B2, “TrkB agonists and methods of use” (EMORY UNIVERSITY, priority 2010, dated 2016)
Values joined by “and” are separate entries in the source; they are usually repeats but may differ in a detail not shown here. Equal values may be shown once. “Also recorded” adds a separate entry of the source.

What was measured:
[1] = target: T1, TrkB (Mus musculus, UniProt P15209); experiment: TrkB activation in mouse brain after single oral administration (immunoblotting); assay type: in vivo; details: 1 mg/kg oral, C57BL/6J mice
T1 construct: from tissue; host or cells: brain of wild-type C57BL/6J mice
Procedure: Rat primary neurons were treated with 500 nM. 4′-DMA-7,8-DHF from various time points. The neuronal lysates were analyzed with various antibodies. 4′-DMA-7,8-DHF rapidly activated TrkB and its downstream signaling cascades (left panels). […] One mg/kg of 4′-DMA-7,8-DHF and 7,8-DHF were orally administrated into C57 BL/6J mice and TrkB phosphorylation and its downstream signaling cascades including Akt and MAPK in mouse brain were analyzed by immunoblotting at various time points. TrkB activation by 4′-DMA-7,8-DHF peaked at 4 h, whereas the maximal TrkB activation by 7,8-DHF in mouse brain occurred at 1-2 h (middle panels).
1 mg/kg of various compounds were orally administrated into C57 BL/6J mice and TrkB phosphorylation and its downstream signaling cascades including Akt and MAPK in mouse brain were analyzed by immunoblotting at 2 h.
Time course assay with compound i and m in mouse brain. 1 mg/kg of compound i and m were orally administrated into C57 BL/6J mice and TrkB phosphorylation and its downstream signaling cascades including Akt and MAPK in mouse brain were analyzed by immunoblotting at various time points.
(§1) To compare the TrkB activation by these synthetic compounds, primary cortical cultures were prepared. Cortical neurons were treated with 500 nM of various compounds for 20 min and cell lysates were collected. […] Replacing the H-bond acceptor O atom with hydrogen bond donor NH abolishes its stimulatory effect. […] On the other hand, 7,8-DHF provoked TrkB activation with the minimal concentration of 100 nM (FIG. 2B, right panels). To further study 4′-DMA-7,8-DHF's kinetics on TrkB activation, primary neurons were treated for various time points. 4′-DMA-7,8-DHF swiftly activated TrkB as soon as 5 minutes following treatment. […] To compare the stimulatory effect on TrkB receptor in mouse brains, 1 mg/kg of the synthesized derivatives were injected into C57BL/6J mice. TrkB activation was monitored at different time points.
The compounds were orally injected (1 mg/kg) into C57BL/6J mice. The TrkB and its downstream signaling cascades activation at 2 h were examined after drug administration with mouse brain tissues. […] The downstream p-Akt and p-MAPK tightly coupled to p-TrkB signals.

[2] = target: T2, TrkB (Rattus norvegicus, UniProt Q63604); experiment: TrkB phosphorylation in primary rat cortical neurons (immunoblotting); assay type: cell-based; details: for TrkB activation (phosphorylation) compared to vehicle control: 500 nM compound, 20 min, primary rat cortical neurons, immunoblotting; for minimal concentration triggering TrkB activation (titration assay): primary cortical neurons, different doses
T2 construct: endogenous in cells; host or cells: primary rat cortical neurons (E17 embryos, 13 DIV)
Procedure: (§2) Primary rat cortical neurons from E17 embryos (13 DIV) were treated with 500 nM various chemicals for 15 min. The neuronal cell lysates were collected and resolved on 10% SDS-PAGE. Immunoblotting was conducted with various antibodies. p-TrkB Y817 antibody was employed at 1:20000-40000 dilution.
as §2, with “days in vitro (DIV))” for “DIV)”, “1:20,000-40,000 dilution (top panel). Equal amount of TrkB was loaded in all of the samples (middle panel). P-Akt 473 ELISA analysis with the neuronal lysates (bottom panel).” for “1:20000-40000 dilution.”
7,8-dihydroxyflavone (7,8-DHF) is a small molecular TrkB agonist. Preliminary structure-activity relationship study (SAR) supports that 7,8-catechol moiety is essential for the agonistic effect by 7,8-DHF. To explore the structure-activity relationship (SAR) in depth, the TrkB stimulatory activity was examined by numerous flavonoid derivatives. The numeric positions and each ring's nomenclature are designated (FIG. 1A). Compounds were dissolved in DMSO, then diluted into […] with 1× PBS (final vehicle contains 10% DMSO/PBS) (FIG. 1B). Primary rat cortical neurons were treated with 500 nM compounds for 20 min. The cell lysates were analyzed by immunoblotting. […] Downstream activation of the TrkB target Akt was tightly correlated with TrkB activation patterns by these derivatives (FIG. 1C, bottom panel). As observed, the hydroxy groups on B ring can regulate 7,8-DHF's stimulatory activity on TrkB receptor. As 2′-hydroxy, especially 3′-hydroxy group, elevates the agonistic effect, whereas 4′-hydroxy group diminishes its stimulatory effect.
as §1
Additional compounds are listed as designated from a to m (FIG. 6A). The compounds were dissolved in DMSO, then diluted into 500 μM with 1× PBS (final vehicle contains 10% DMSO/PBS). The primary rat cortical neurons (13 DIV) were treated with 500 nM compounds for 20 min. The cell lysates were analyzed by immunoblotting. […] Moreover, p-Akt ELISA was monitored to quantitatively analyze the agonistic activities of these compounds.

[3] = target: T3, TrkA (Mus musculus, UniProt Q3UFB7); experiment: TrkA activation in brain of chronically treated mice (immunoblotting p-TrkA 794); assay type: in vivo; details: 5 mg/kg oral 21 days, brain lysates
T3 construct: from tissue; host or cells: brain of chronically treated C57BL/6J mice
Procedure: The brain lysates from above chronically treated mice were analyzed by immunoblotting with anti-p-TrkA 794 and p-TrkB 817.
Accumulating evidence supports that BDNF plays a role in mediating therapeutic effects of antidepressants. Infusion of exogenous BDNF into hippocampus or brain stem has anti-depressant-like behavioral effect. A forced swim test is broadly used for screening of potential antidepressant drugs and is widely used to measure antidepressant activity. To explore whether 4′-DMA-7,8-DHF and 7,8-DHF have any antidepressant effect like BDNF, a forced swim test was conducted after chronic treatment of the mice for 21 days via oral injection.
BDNF/TrkB signaling plays an role in mediating antidepressants' therapeutic effects. A forced swim test is broadly used for screening of potential antidepressant drugs and is widely used to measure antidepressant activity. To explore whether imidazole flavanoid and compound i have any antidepressant effect like BDNF, a forced swim test was conducted after chronic treatment of the mice for 21 days via oral administration.

[4] = target: T4, TrkB F616A (Mus musculus, UniProt P15209, F616A); experiment: Forced swim test in TrkB F616A knockin mice with or without 1NMPP1; assay type: in vivo; details: drugs administrated for 5 days; for immobility time in forced swim test, TrkB F616A knockin mice, after 1NMPP1 treatment: 1NMPP1 (25 μM) in drinking water; for immobility time in forced swim test, TrkB F616A knockin mice, saline group: regular drinking water
T4 construct: from tissue; host or cells: TrkB F616A knock-in mice (brain; whole animal in the forced swim test)
Procedure: Male TrkB knockin mice were given the regular drinking water or 1NMPP1 (25 μM) containing drinking water one day before we started to inject the drugs and sustained throughout the whole experiment. The indicated control (saline) and drugs were administrated for 5 days. […] None of the drugs produced a significant change in 1NMPP1 treated TrkB KI mice (n=6 to 7 mice) as compared to control.
TrkB F616A knockin mice were used to assess whether the behavior responses by 7,8-DHF and its derivative is mediated by TrkB receptor. Transgenic mice were subjected to saline or 1NMPP1 pretreatment, respectively.

[5] = primary neurons, 500 nM, time course

T1 sequence (P15209 32-821): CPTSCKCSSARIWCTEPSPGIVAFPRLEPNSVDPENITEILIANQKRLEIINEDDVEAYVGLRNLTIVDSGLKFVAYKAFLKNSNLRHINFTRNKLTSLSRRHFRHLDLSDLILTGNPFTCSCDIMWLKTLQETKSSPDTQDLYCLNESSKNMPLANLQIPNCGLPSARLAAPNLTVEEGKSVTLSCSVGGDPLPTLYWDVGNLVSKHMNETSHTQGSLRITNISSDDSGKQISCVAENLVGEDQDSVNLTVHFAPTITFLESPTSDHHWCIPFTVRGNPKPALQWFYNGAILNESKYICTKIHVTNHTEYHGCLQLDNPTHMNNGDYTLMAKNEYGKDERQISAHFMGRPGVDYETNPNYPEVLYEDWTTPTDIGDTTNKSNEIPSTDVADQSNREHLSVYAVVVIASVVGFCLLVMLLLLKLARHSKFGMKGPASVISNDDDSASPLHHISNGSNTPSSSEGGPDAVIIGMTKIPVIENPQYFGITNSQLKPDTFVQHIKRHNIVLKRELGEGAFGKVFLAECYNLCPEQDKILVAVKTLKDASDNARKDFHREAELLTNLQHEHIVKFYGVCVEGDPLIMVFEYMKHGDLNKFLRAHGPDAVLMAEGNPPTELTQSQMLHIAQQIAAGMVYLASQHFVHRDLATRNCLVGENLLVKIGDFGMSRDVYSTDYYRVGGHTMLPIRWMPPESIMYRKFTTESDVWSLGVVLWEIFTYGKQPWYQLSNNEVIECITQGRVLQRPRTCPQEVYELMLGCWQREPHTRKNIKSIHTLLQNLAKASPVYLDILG
T4 sequence (P15209 32-821 F616A): as the sequence (P15209 32-821) above, with F585A counted along it
T2 sequence (Q63604 32-821): as the sequence (P15209 32-821) above, with T3M, S9T, A10T, V32I, R63K, S84G, M153T, L185I, S394T, S770N counted along it
T3 sequence (Q3UFB7 34-799): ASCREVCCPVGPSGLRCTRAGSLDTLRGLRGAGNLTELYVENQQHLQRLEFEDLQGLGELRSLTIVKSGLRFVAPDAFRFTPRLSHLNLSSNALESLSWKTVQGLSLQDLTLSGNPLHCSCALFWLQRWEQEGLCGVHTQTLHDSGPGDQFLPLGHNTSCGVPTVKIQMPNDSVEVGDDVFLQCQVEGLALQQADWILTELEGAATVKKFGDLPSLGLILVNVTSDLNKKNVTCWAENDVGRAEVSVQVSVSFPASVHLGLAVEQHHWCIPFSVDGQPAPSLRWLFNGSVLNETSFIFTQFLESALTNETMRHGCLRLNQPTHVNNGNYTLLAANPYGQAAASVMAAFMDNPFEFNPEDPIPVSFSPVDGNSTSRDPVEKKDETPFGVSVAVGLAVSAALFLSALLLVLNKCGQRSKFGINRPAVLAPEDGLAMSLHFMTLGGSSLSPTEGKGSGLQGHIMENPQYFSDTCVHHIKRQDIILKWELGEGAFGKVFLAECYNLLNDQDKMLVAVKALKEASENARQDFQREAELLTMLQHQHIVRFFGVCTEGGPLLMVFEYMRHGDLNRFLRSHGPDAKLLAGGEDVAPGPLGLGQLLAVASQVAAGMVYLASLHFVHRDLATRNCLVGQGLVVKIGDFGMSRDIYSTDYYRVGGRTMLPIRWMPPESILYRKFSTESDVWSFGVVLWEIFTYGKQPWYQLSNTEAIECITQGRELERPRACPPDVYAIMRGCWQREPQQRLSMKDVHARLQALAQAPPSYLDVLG

Question: Which results are given for `O=c1cc(-c2ccccc2)oc2c(O)c(O)ccc12` [7,8-DHF, 7,8-dihydroxyflavone, reference compound]?
Answer: time of onset of TrkB activation in mouse brain [1]: approximately 2 h; TrkB activity in mouse brain at 16 h [1]: Elevated TrkB activity was demonstrable even at 16 h; TrkB activation (phosphorylation) compared to vehicle control [2]: stimulated TrkB activation; minimal concentration triggering TrkB activation (titration assay) [2]: 100 nM; TrkA activation in mouse brain after chronic treatment [3]: not TrkA activation; immobility time in forced swim test, TrkB F616A knockin mice, after 1NMPP1 treatment [4]: neither 4′-DMA-7,8-DHF nor 7,8-DHF had any significant effect on the immobility time; immobility time in forced swim test, TrkB F616A knockin mice, saline group [4]: substantially reduced the immobility time

Question: `CN(C)c1ccc(-c2cc(=O)c3ccc4nc[nH]c4c3o2)cc1` [compound m, 8-(4-(dimethylamino)phenyl)chromeno[7,8-d]imidazol-6(1H)-one] was tested. Which “TrkB phosphorylation in mouse brain at 2 h” value [1] did it give?
Answer: exhibited the strongest TrkB phosphorylation

Question: What about the “TrkB activation in mouse brain, time course, compared with compound i” value ([1]; various time points) of the same compound?
Answer: more robust and sustained TrkB activation than compound i

Question: What about the “TrkB activation (phosphorylation) compared to vehicle control” value [2] of the same compound?
Answer: exhibited strong p-TrkB activity

Question: And the “TrkA activation in mouse brain after chronic treatment” value [3]?
Answer: not TrkA activation

Question: How did the “duration of TrkB agonistic effect in animals compared with 7,8-DHF” value [1] turn out when `CN(C)c1ccc(-c2cc(=O)c3ccc(O)c(O)c3o2)cc1` [4′-DMA-7,8-DHF, 4′-dimethylamino-7,8-dihydroxyflavone] was run?
Answer: sustained longer in animals; also recorded: longer period of TrkB activation in mouse brain

Question: What about the “time of onset of TrkB activation in mouse brain” value [1] of the same compound?
Answer: 1 h

Question: What about the “time of peak TrkB activation in mouse brain” value [1] of the same compound?
Answer: 8 h and 4 h

Question: And the “TrkB phosphorylation in mouse brain at 2 h” value [1]?
Answer: exhibited the strongest TrkB phosphorylation

Question: What about the “TrkB activity in mouse brain at 16 h” value [1] of the same compound?
Answer: partially decayed at 16 h

Question: And the “TrkB activation (phosphorylation) compared to vehicle control” value [2]?
Answer: strongly activated TrkB

Question: What about the “TrkB activation (phosphorylation) compared to vehicle control” value ([2]; listed as compound a) of the same compound?
Answer: activated TrkB better than compounds b to d

Question: And the “agonistic effect on TrkB relative to parental 7,8-DHF” value ([2]; from titration assays)?
Answer: about 10 fold

Question: What about the “minimal concentration triggering TrkB activation (titration assay)” value [2] of the same compound?
Answer: 10 nM

Question: And the “time at which TrkB signal decayed back to baseline” value [2, 5]?
Answer: 30 to 180 min

Question: And the “time to TrkB activation following treatment” value [2, 5]?
Answer: 5 min

Question: And the “TrkA activation in mouse brain after chronic treatment” value [3]?
Answer: not TrkA activation

Question: And the “immobility time in forced swim test, TrkB F616A knockin mice, after 1NMPP1 treatment” value [4]?
Answer: neither 4′-DMA-7,8-DHF nor 7,8-DHF had any significant effect on the immobility time

Question: What about the “immobility time in forced swim test, TrkB F616A knockin mice, saline group” value [4] of the same compound?
Answer: substantially reduced the immobility time
